Common to all, as to type: physicochemical
Series [1] can be described thus: Half life of the compound at 70 uM in MOPS aqueous buffer (250 mM, pH 7.0) containing MeCN (25% v/v) at 24 degC by HPLC analysis. To be noted: pH 7, 70 µM.
Series [2] in a line: Half life of the compound at 70 uM in MOPS aqueous buffer (300 mM, pH 7.0) containing MeCN (25% v/v) at 24 degC in presence of 700 uM GSH by HPLC analysis. To be noted: pH 7, 70 µM.
Series [3] is described as follows: Half life of the compound in sodium phosphate buffer (10 mM, pH 7.0) at 37 degC containing methanol (10% v/v).
Series [4] can be described thus: Half life of the compound at 100 uM in HEPES buffer (250 mM, pH 7.0) at 24 degC containing no organic solvent.

`CC1(C)[S+]([O-])SC(=O)[C@]1(C)O` (stereo partly drawn): the t1/2 amounted to 1.87 h in series [1] and 0.0633 h in series [2].

As a reminder, the half-life is the time in which the quantity being followed falls by half. A low value points to fast loss. Take `C/C1=C\[C@@H](O)C(=O)/C=C/C=C\c2csc(n2)[C@@H](C)NC(=O)C[C@@]2(CC1)[S+]([O-])SC(=O)[C@]2(C)O` (stereo partly drawn) [LEINAMYCIN]: the half-life in series [3] was 8 h. The compound further showed a half-life at 100 µM in series [4] of 16.1 h. Moreover, the t1/2 worked out at 27 h in series [1] and 0.173 h in series [2].

For `CC1(C)[S+]([O-])SC(=O)[C@@]1(C)O` (stereo partly drawn), the t1/2 in series [1] turned out to be 0.883 h; in series [2] it was 0.0467 h.

Values taken from ChEMBL document CHEMBL2046292, “The macrocycle of leinamycin imparts hydrolytic stability to the thiol-sensing 1,2-dithiolan-3-one 1-oxide unit of the natural product” (Bioorg Med Chem Lett, 2012).
